Source: patent US8999982B2, “Pharmaceutically active compounds as Axl inhibitors” (Lead Discovery Center GmbH, priority 2010, dated 2015)

Tests used:
Axl [1] = molecular target: T1, Axl (Homo sapiens (Human), UniProt P30530); assay: Cellular Axl phosphorylation assay; format: cell-based; conditions: HEK293 cells transfected with Axl cDNA, 1 hour incubation
Experimental: 3. Cellular Axl Phosphorylation Assay:
HEK293 embryonal kidney fibroblasts were transfected in 96 wells with a plasmid containing Axl cDNA. As transfection reagent Superfect (Qiagen) was used. Transfection of the sole vector backbone served as negative control of Axl expression. After overnight incubation the cellular supernatant was replaced with fresh medium. On the following day the Axl-expressing cells were incubated for 1 hour with a compound according to formula (I) at the suitable concentrations. […] The mesoscale technology was used for quantification.

Axl [2] = molecular target: T1, Axl; assay: Axl binding assay
Experimental: Binding of the tracer to the kinase is detected using an EU-labeled anti-tag antibody. […] Binding of an inhibitor to the kinase competes for binding with the tracer, resulting in a loss of FRET-signal. At first a compound according to formula (I) was diluted in 20 mM Hepes pH 8.0, 1 mM DTT, 10 mM MgCl2 and 0.01% Brij35.

T1 sequence (P30530 26-894): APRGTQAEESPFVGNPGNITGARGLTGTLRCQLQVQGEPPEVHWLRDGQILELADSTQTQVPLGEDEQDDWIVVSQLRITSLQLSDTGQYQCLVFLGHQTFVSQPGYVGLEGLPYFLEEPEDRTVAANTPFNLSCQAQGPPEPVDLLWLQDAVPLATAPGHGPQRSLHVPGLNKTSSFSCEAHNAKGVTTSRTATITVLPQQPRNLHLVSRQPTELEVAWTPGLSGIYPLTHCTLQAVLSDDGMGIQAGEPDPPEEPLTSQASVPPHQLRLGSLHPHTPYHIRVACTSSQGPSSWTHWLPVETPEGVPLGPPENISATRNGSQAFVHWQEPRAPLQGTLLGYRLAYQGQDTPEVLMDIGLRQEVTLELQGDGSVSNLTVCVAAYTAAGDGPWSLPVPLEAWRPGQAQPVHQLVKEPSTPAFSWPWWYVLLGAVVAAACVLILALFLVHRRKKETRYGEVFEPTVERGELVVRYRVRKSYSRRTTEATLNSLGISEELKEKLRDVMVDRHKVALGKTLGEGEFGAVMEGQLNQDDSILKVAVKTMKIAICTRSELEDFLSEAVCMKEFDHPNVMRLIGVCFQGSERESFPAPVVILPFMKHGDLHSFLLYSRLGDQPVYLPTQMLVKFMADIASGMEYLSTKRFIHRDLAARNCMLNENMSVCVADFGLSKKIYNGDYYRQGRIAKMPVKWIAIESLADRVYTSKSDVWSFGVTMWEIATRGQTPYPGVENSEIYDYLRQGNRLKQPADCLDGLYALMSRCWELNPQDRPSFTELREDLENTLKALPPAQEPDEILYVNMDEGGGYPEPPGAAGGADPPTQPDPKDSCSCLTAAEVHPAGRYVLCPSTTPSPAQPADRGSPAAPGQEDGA

Compound	IC50 (Axl [1])	IC50 (Axl [2])
COc1cc2nccc(Oc3ccc(NC(=O)c4cc(C)n(C)n4)cc3F)c2cc1OC [Example 1, N-[4-[(6,7-dimethoxy-4-quinolyl)oxy]-3-fluoro-phenyl]-1,5-dimethyl-pyrazole-3-carboxamide]	0.5 to 5 µM	0.5 to 5 µM
COc1cc2nccc(Oc3ccc(NC(=O)c4nn(C)cc4Br)cc3F)c2cc1OC [Example 3, 4-bromo-N-[4-[(6,7-dimethoxy-4-quinolyl)oxy]-3-fluoro-phenyl]-1-methyl-pyrazole-3-carboxamide]	0.5 to 5 µM	0.5 to 5 µM
COc1cc2nccc(Oc3ccc(NC(=O)c4ccn(C)n4)cc3F)c2cc1OC [Example 4, N-[4-[(6,7-dimethoxy-4-quinolyl)oxy]-3-fluoro-phenyl]-1-methyl-pyrazole-3-carboxamide]	0.5 to 5 µM	0.5 to 5 µM
COc1cc2nccc(Oc3ccc(NC(=O)c4cc(C)n(C(C)(C)C)n4)cc3F)c2cc1OC [Example 5, 1-tert-butyl-N-[4-[(6,7-dimethoxy-4-quinolyl)oxy]-3-fluoro-phenyl]-5-methyl-pyrazole-3-carboxamide]	< 0.5 µM	< 0.5 µM
COc1cc2nccc(Oc3ccc(NC(=O)c4csc(-c5ccccc5)n4)cc3F)c2cc1OC [Example 10, N-[4-[(6,7-dimethoxy-4-quinolyl)oxy]-3-fluoro-phenyl]-2-phenyl-thiazole-4-carboxamide]	0.5 to 5 µM	0.5 to 5 µM
CCCn1ccc(C(=O)Nc2ccc(Oc3ccnc4cc(OC)c(OC)cc34)c(F)c2)n1 [Example 13, N-[4-[(6,7-dimethoxy-4-quinolyl)oxy]-3-fluoro-phenyl]-1-propyl-pyrazole-3-carboxamide]	< 0.5 µM	0.5 to 5 µM
COc1cc2nccc(Oc3ccc(NC(=O)c4ccn(COCC(F)(F)F)n4)cc3F)c2cc1OC [Example 15, N-[4-[(6,7-dimethoxy-4-quinolyl)oxy]-3-fluoro-phenyl]-1-(2,2,2-trifluoroethoxymethyl)pyrazole-3-carboxamide]	< 0.5 µM	0.5 to 5 µM
CCOc1cn(-c2ccc(F)cc2)nc1C(=O)Nc1ccc(Oc2ccnc3cc(OC)c(OC)cc23)c(F)c1 [Example 16, N-[4-[(6,7-dimethoxy-4-quinolyl)oxy]-3-fluoro-phenyl]-4-ethoxy-1-(4-fluorophenyl)pyrazole-3-carboxamide]	< 0.5 µM	< 0.5 µM
COc1cc2nccc(Oc3ccc(NC(=O)c4nn(-c5ccc(F)cc5)cc4OC)cc3F)c2cc1OC [Example 17, N-[4-[(6,7-dimethoxy-4-quinolyl)oxy]-3-fluoro-phenyl]-1-(4-fluorophenyl)-4-methoxy-pyrazole-3-carboxamide]	< 0.5 µM	< 0.5 µM
COc1cc2nccc(Oc3ccc(NC(=O)c4nn(-c5ccc(F)cc5)cc4OCC4CC4)cc3F)c2cc1OC [Example 18, 4-(cyclopropylmethoxy)-N-[4-[(6,7-dimethoxy-4-quinolyl)oxy]-3-fluoro-phenyl]-1-(4-fluorophenyl)pyrazole-3-carboxamide]	< 0.5 µM	< 0.5 µM
COc1cc2nccc(Oc3ccc(NC(=O)c4nn(-c5ccc(F)cc5)cc4OCCN(C)C)cc3F)c2cc1OC [Example 19, N-[4-[(6,7-dimethoxy-4-quinolyl)oxy]-3-fluoro-phenyl]-4-(2-dimethylaminoethoxy)-1-(4-fluorophenyl)pyrazole-3-carboxamide]	< 0.5 µM	< 0.5 µM
COc1cc2nccc(Oc3ccc(NC(=O)c4nn(-c5ccc(F)cc5)cc4OCCCN(C)C)cc3F)c2cc1OC [Example 20, N-[4-[(6,7-dimethoxy-4-quinolyl)oxy]-3-fluoro-phenyl]-4-(3-dimethylaminopropoxy)-1-(4-fluorophenyl)pyrazole-3-carboxamide]	0.5 to 5 µM	0.5 to 5 µM
COc1cc2nccc(Oc3ccc(NC(=O)c4nn(-c5ccc(F)cc5)cc4OC(C)C)cc3F)c2cc1OC [Example 21, N-[4-[(6,7-dimethoxy-4-quinolyl)oxy]-3-fluoro-phenyl]-1-(4-fluorophenyl)-4-isopropoxy-pyrazole-3-carboxamide]	< 0.5 µM	< 0.5 µM
CCOc1cn(-c2ccc(F)cc2Cl)nc1C(=O)Nc1ccc(Oc2ccnc3cc(OC)c(OC)cc23)c(F)c1 [Example 23, 1-(2-chloro-4-fluoro-phenyl)-N-[4-[(6,7-dimethoxy-4-quinolyl)oxy]-3-fluoro-phenyl]-4-ethoxy-pyrazole-3-carboxamide]	< 0.5 µM	< 0.5 µM
CCOc1cn(-c2ccc(F)cc2)nc1C(=O)Nc1ccc(Oc2ccnc3cc(OC)c(OC)cc23)cc1 [Example 24, N-[4-[(6,7-dimethoxy-4-quinolyl)oxy]phenyl]-4-ethoxy-1-(4-fluorophenyl)pyrazole-3-carboxamide]	< 0.5 µM	< 0.5 µM
COc1cc2nccc(Oc3ccc(NC(=O)c4nn(-c5ccc(F)cc5)cc4OC(C)C)cc3)c2cc1OC [Example 25, N-[4-[(6,7-dimethoxy-4-quinolyl)oxy]phenyl]-1-(4-fluorophenyl)-4-isopropoxy-pyrazole-3-carboxamide]	< 0.5 µM	< 0.5 µM
COc1cc2nccc(Oc3ccc(NC(=O)c4nn(-c5ccc(F)cc5)cc4OCC4CC4)cc3)c2cc1OC [Example 26, 4-(cyclopropylmethoxy)-N-[4-[(6,7-dimethoxy-4-quinolyl)oxy]phenyl]-1-(4-fluorophenyl)pyrazole-3-carboxamide]	< 0.5 µM	< 0.5 µM
CCOc1cn(-c2ccc(F)cc2C)nc1C(=O)Nc1ccc(Oc2ccnc3cc(OC)c(OC)cc23)cc1 [Example 27, N-[4-[(6,7-dimethoxy-4-quinolyl)oxy]phenyl]-4-ethoxy-1-(4-fluoro-2-methyl-phenyl)pyrazole-3-carboxamide]	< 0.5 µM	< 0.5 µM
CCOc1cn(-c2ccc(F)cc2)nc1C(=O)Nc1ccc(Oc2ccnc3cc(OC)c(OC)cc23)c(C)c1 [Example 28, N-[4-[(6,7-dimethoxy-4-quinolyl)oxy]-3-methyl-phenyl]-4-ethoxy-1-(4-fluorophenyl)pyrazole-3-carboxamide]	< 0.5 µM	< 0.5 µM
COc1cc2nccc(Oc3ccc(NC(=O)c4nn(-c5ccc(F)cc5)cc4OC(C)C)cc3C)c2cc1OC [Example 29, N-[4-[(6,7-dimethoxy-4-quinolyl)oxy]-3-methyl-phenyl]-1-(4-fluorophenyl)-4-isopropoxy-pyrazole-3-carboxamide]	< 0.5 µM	< 0.5 µM
COc1cc2nccc(Oc3ccc(NC(=O)c4nn(-c5ccc(F)cc5)cc4OCC4CC4)cc3C)c2cc1OC [Example 30, 4-(cyclopropylmethoxy)-N-[4-[(6,7-dimethoxy-4-quinolyl)oxy]-3-methyl-phenyl]-1-(4-fluorophenyl)pyrazole-3-carboxamide]	< 0.5 µM	< 0.5 µM
CCOc1cn(-c2ccc(F)cc2C)nc1C(=O)Nc1ccc(Oc2ccnc3cc(OC)c(OC)cc23)c(C)c1 [Example 31, N-[4-[(6,7-dimethoxy-4-quinolyl)oxy]-3-methyl-phenyl]-4-ethoxy-1-(4-fluoro-2-methyl-phenyl)pyrazole-3-carboxamide]	< 0.5 µM	< 0.5 µM
CCOc1cn(-c2ccc(F)cc2)nc1C(=O)Nc1ccc(Oc2ccnc3cc(OC)c(OC)cc23)c(Cl)c1 [Example 32, N-[3-chloro-4-[(6,7-dimethoxy-4-quinolyl)oxy]phenyl]-4-ethoxy-1-(4-fluorophenyl)pyrazole-3-carboxamide]	< 0.5 µM	< 0.5 µM
COc1cc2nccc(Oc3ccc(NC(=O)c4nn(-c5ccc(F)cc5)cc4OC(C)C)cc3Cl)c2cc1OC [Example 33, N-[3-chloro-4-[(6,7-dimethoxy-4-quinolyl)oxy]phenyl]-1-(4-fluorophenyl)-4-isopropoxy-pyrazole-3-carboxamide]	< 0.5 µM	< 0.5 µM
COc1cc2nccc(Oc3ccc(NC(=O)c4nn(-c5ccc(F)cc5)cc4OCC4CC4)cc3Cl)c2cc1OC [Example 34, N-[3-chloro-4-[(6,7-dimethoxy-4-quinolyl)oxy]phenyl]-4-(cyclopropylmethoxy)-1-(4-fluorophenyl)pyrazole-3-carboxamide]	< 0.5 µM	< 0.5 µM
CCOc1cn(-c2ccc(F)cc2C)nc1C(=O)Nc1ccc(Oc2ccnc3cc(OC)c(OC)cc23)c(Cl)c1 [Example 35, N-[3-chloro-4-[(6,7-dimethoxy-4-quinolyl)oxy]phenyl]-4-ethoxy-1-(4-fluoro-2-methyl-phenyl)pyrazole-3-carboxamide]	< 0.5 µM	< 0.5 µM
COc1cc2nccc(Oc3ccc(NC(=O)c4nn(-c5ccc(F)cc5)cc4CCN(C)C)cc3F)c2cc1OC [Example 36, N-(4-((6,7-dimethoxyquinolin-4-yl)oxy)-3-fluorophenyl)-4-(2-(dimethylamino)ethyl)-1-(4-fluorophenyl)-1H-pyrazole-3-carboxamide]	< 0.5 µM	< 0.5 µM
CCOc1cn(-c2ccc(F)cc2CCN(C)C)nc1C(=O)Nc1ccc(Oc2ccnc3cc(OC)c(OC)cc23)c(F)c1 [Example 37, N-[4-[(6,7-dimethoxy-4-quinolyl)oxy]-3-fluoro-phenyl]-1-[2-(2-dimethylaminoethyl)-4-fluoro-phenyl]-4-ethoxy-pyrazole-3-carboxamide]	< 0.5 µM	< 0.5 µM
COc1cc2c(Oc3ccc(NC(=O)c4csc(-c5ccccc5)n4)cc3F)ccnc2cc1OCCCN1CCOCC1 [Example 38, N-[3-fluoro-4-[[6-methoxy-7-(3-morpholinopropoxy)-4-quinolyl]oxy]phenyl]-2-phenyl-thiazole-4-carboxamide]	< 0.5 µM	< 0.5 µM
